Assay results from patent US11596664B2, “Plant extracts made of Sideritis and use thereof to boost cognitive performance” (Finzelberg GmbH & Co. KG, priority 2010, dated 2023).

Test system: serotonin absorption (serotonergic re-uptake)
Assay: Serotonin absorption inhibition, test system according to EP 1 634 602
Assay type: biochemical
Conditions: reference substance at 10 μm; defines 100%
From the text: Serotonergic neurotransmission being influenced is described for plants of the genus Sideritis in the patent application EP 1 634 602. […] The experimental set-up described in paragraphs [0046] to [0054] for measuring serotonergic re-uptake rates was used for initial screening of suitable species for the tests.
50 g of the herbal drug is mixed twice with 15 times the quantity of boiling water and extracted with agitation. Both maceration extracts are allowed to stand at room temperature to cool down and combined. The two combined macerations are filtered off with a fluted filter and concentrated to a soft extract using a rotary evaporator. The extractive yields determined for the different species are shown below. In order to test for the serotonin absorption inhibition, the extracts were all weighed in at the same native content and assayed with a measuring concentration of 50 μg/ml in the test system according to EP 1 634 602.
50 g of the herb Sideritis was mixed twice at 45° C. with 15 times the quantity of a mixture of water and ethanol and extracted with agitation. Both maceration extracts were allowed to stand at room temperature to cool down and combined. The two combined macerations were filtered off with a fluted filter and concentrated to a soft extract using a rotary evaporator. The extractive yields determined for the different species are shown below. […]

COCCCC/C(=N\OCCN)c1ccc(C(F)(F)F)cc1 [fluvoxamine]
Serotonin absorption inhibition, positive control: 100%
